For one experiment, the target named is T1, human LTA4 hydrolase (Homo sapiens, UniProt P09960).
T1 construct: A human LTA4 hydrolase full-length cDNA clone (NM_000895) was purchased; His tag (own knowledge: pDEST17 adds an N-terminal 6xHis); made in house; host or cells: Escherichia coli BL21-AI
T1 sequence (P09960 1-611): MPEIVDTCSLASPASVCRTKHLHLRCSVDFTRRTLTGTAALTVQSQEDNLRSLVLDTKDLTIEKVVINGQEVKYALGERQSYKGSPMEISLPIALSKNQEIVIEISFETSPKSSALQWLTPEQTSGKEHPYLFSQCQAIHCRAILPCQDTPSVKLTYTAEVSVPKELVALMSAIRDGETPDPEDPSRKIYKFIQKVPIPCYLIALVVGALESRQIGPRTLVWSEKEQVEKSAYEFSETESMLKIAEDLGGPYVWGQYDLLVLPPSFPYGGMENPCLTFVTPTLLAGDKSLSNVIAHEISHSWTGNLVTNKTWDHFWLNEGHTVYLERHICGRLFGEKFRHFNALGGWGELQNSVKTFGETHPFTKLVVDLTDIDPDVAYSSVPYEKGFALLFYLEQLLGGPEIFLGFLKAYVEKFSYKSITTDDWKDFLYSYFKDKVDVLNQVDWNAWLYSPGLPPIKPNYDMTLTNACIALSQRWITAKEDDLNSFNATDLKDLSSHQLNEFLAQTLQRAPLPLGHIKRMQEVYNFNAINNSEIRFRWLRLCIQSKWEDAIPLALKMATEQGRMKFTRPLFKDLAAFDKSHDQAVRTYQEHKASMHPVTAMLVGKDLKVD
Description: In vitro assay testing inhibitory activity against purified recombinant human LTA4 hydrolase. Format: biochemical.
Text: (1) In vitro Assay Testing Inhibitory Activity Against Purified Recombinant Human LTA4 Hydroase:
A human LTA4 hydrolase full-length cDNA clone (NM_000895) was purchased from OriGene Technologies (Rockville, Md.). The gene was amplified by polmerase chain reaction and transferred via pDONR201 into the bacterial expression vector pDEST17 by recombination (both plasmids from Invitrogen, Carlsbad, Calif.). The resulting construct was transformed into Escherichia coli BL21-AI (Invitrogen), and expression was induced by chemical induction with arabinose. The recombinant enzyme was purified by chromatography on a FPLC system (Amersham Biosciences, Uppsala, Sweden) using immobilized metal affinity chromatography (Ni-NTA Superflow, Qiagen, Hilden, Germany) and anion exchange chromatography (MonoQ HR 10/10, Amersham Biosciences).
(§1) The compounds of the invention were incubated in a series of dilutions with 200 nM of recombinant enzyme in assay buffer (100 mM Tris-HCl, 100 mM NaCl, 5 mg/ml fatty-acid free BSA, 10% DMSO, pH 8.0) for 10 min at room temperature to allow binding between LTA4 hydrolase and the inhibitors. LTA4 was prepared by alkaline hydrolysis of LTA4 methyl ester (Biomol, Plymouth Meeting, Pa., or Cayman Chemicals, Ann Arbor, Mich.). A solution of 10 μg of the ester was dried under a nitrogen stream and redissolved in 60 μl of a solution of 80% aceton and 20% 0.25 M NaOH.
After incubation for 40 min at room temperature the resulting approximately 500 μM tock of LTA4 was kept at −80° C. for no more than a few days prior to use.
Immediately before the assay, LTA4 was diluted to a concentration of 10 μM in assay buffer (without DMSO) and added to the reaction mixture to a final concentration of 2 μM to initiate the enzyme reaction. After incubation for 120 sec at room temperature, the reaction was stopped by ading 2 volumes of chilled quenching buffer, containing acetonitril with 1% acetic acid and 225 nM LTB4-d4 (Biomol). The samples were then kept at 4° C. over night to complete protein precipitation and centrifuged for 15 min at 1800 g. LTB4 formed was measured by LC-MS/MS using LTB4-d4 as an internal standard and an external LTB4 standard (Biomol) as reference. Briefly, the analyte was separated from LTB4 isomers formed by spontaneous hydrolysis of LTA4 using isocratic elution (modified protocol from Mueller et al. (1996), J. Biol. Chem. 271, 24345-24348) on a HPLC system (Waters, Milford, Mass.) and analyzed on a tandem quadrupole mass spectrometer (Waters). MRM transitions followed on 2 channels were 335.2>195.3 (LTB4) and 339.2>197.3 (LTB4-d4). Based on the amounts of LTB4 found at each inhibitor concentration, a dose-response curve was fitted to the data and an IC50 value was calculated.
as §1, with “NaOH. After incubation for 40 min at room temperature the resulting approximately 500 μM tock of LTA4 was kept at −80° C. for no more than a few days prior to use.” for “NaOH.”

Experiment [1] deals with ionophore-induced LTB4 production. As to conditions: oral administration; cited from earlier work.
For experiment [2] the test system is unchanged. As to conditions: oral administration; cited from earlier work. This is another data set of the same source.
The conditions of experiment [3]: eight weeks of treatment, primate model; cited from earlier work.
The mark [4] stands for this setting: Table V, read-out: hLTA4H Enzyme IC50.
The mark [5] stands for this setting: Table II, read-out: IC50 (μM)(hLTA4H).
Setting [6] is: Table IV, read-out: hLTA4H Enyzme IC 50.
[7] abbreviates: Table I, read-out: IC50 (μM) (hLTA4H).
Setting [8] is: Table III, read-out: IC50 (μM) (hLTA4H).

Structures can show the parent of a compound that is named as a salt. Where two headings read alike, the source gives them in different places. A value given as a limit tells only on which side of the number the result lay.

We go through 24 molecules from patent US7674802B2, “N-linked aryl heteroaryl inhibitors of LTA4H for treating inflammation” (deCODE genetics, ehf, priority 2005, dated 2010).

Regarding `O=C1c2ccccc2C(=O)N1c1ccc(OCCN2CCCCC2)cc1`, the IC50 on human LTA4 hydrolase (setting [4]) is under 5 µM.
On to `O=C1c2ccccc2C(=O)N1c1ccc(OC[C@H]2CCCN2)cc1`, for which the IC50 at human LTA4 hydrolase (setting [4]) was under 5 µM.
Consider `CN1CCC[C@@H]1COc1ccc(N2Cc3ccccc3C2)cc1`, for which, on human LTA4 hydrolase (setting [4]), the IC50 fell in the range of 5 to 20 µM.
Take `c1ccc2c(c1)cnn2-c1ccc(OC[C@H]2CCCN2)cc1`: the IC50 on human LTA4 hydrolase (setting [4]) lay in the range of 5 to 20 µM.
Same read-out and setting: then `CC1Cc2ccccc2N1c1ccc(OC[C@H]2CCCN2)cc1` (stereo partly shown), with over 20 µM; and `Cc1cn(-c2ccc(OC[C@H]3CCCN3)cc2)c2ccccc12`, with over 20 µM.
As for `Clc1c2ccccc2nn1-c1ccc(OCCN2CCCCC2)cc1` [Example 1, 3-Chloro-2-[4-(2-piperidin-1-yl-ethoxy)-phenyl]-2H-idazole], the IC50 on human LTA4 hydrolase (setting [5]) and on human LTA4 hydrolase (setting [6]) was under 5 µM in each case.
In the case of `CN(CCOc1ccc(-n2nc3ccccc3c2Cl)cc1)CCC(=O)O` [Example 2, 3-({2-[4-(3-Chloro-indazol-2-yl)-phenoxy]-ethyl}-methyl-amino)-propionic acid hydrochloride], the IC50 on human LTA4 hydrolase (setting [7]) and on human LTA4 hydrolase (setting [6]) was under 5 µM throughout.
In the case of `CN(CCCC(=O)O)CCOc1ccc(-n2nc3ccccc3c2Cl)cc1` [Example 3, 4-({2-[4-(3-Chloro-indazol-2-yl)-phenoxy]-ethyl}-methyl-amino)butyric acid hydrchloride salt], the IC50 at human LTA4 hydrolase (setting [7]) and on human LTA4 hydrolase (setting [6]) was under 5 µM in each case.
For the molecule `CNCCCOc1ccc(-n2nc3ccccc3c2Cl)cc1` [Example 4, {3-[4-(3-Chloro-indazol-2-yl)-phenoxy]-propyl}-methyl-amine hydrochloride], the IC50 at human LTA4 hydrolase (setting [7]) and at human LTA4 hydrolase (setting [6]) was under 5 µM each time.
For the molecule `CN(CCCOc1ccc(-n2nc3ccccc3c2Cl)cc1)CCC(=O)O` [Example 5, 3-({3-[4-(3-Chloro-indazol-2-yl)-phenoxy]-propyl}-methyl-amino)-propionic acid hydrochloride salt], the IC50 on human LTA4 hydrolase (setting [7]) and at human LTA4 hydrolase (setting [6]) was under 5 µM in each case.
For the molecule `CN(CCCOc1ccc(-n2nc3ccccc3c2Cl)cc1)CCCC(=O)O` [Example 6, 4-({3-[4-(3-Chloro-indazol-2-yl)-phenoxy]-propyl}-methyl-amino)butyric acid Hydrochloride], the IC50 on human LTA4 hydrolase (setting [7]) and on human LTA4 hydrolase (setting [6]) was under 5 µM in each case.
For the molecule `O=C(O)C1CCN(CCCOc2ccc(-n3nc4ccccc4c3Cl)cc2)CC1` [Example 8, 1-{3-[4-(3-Chloro-indazol-2-yl)-phenoxy]-propyl}-piperidine-4-carboxylic acid hydrochloride], the IC50 on human LTA4 hydrolase (setting [5]) and at human LTA4 hydrolase (setting [6]) was under 5 µM in each case.
For `CNC(=O)C1CCN(CCCOc2ccc(-n3nc4ccccc4c3Cl)cc2)CC1` [Example 9, 1-{3-[4-(3-Chloro-indazol-2-yl)-phenoxy]-propyl}-piperidine-4-carboxylic acid methylamide], the IC50 on human LTA4 hydrolase (setting [5]) and at human LTA4 hydrolase (setting [6]) was under 5 µM in each case.
In the case of `NC(=O)C1CCN(CCCOc2ccc(-n3nc4ccccc4c3Cl)cc2)CC1` [Example 10, 1-{3-[4-(3-Chloro-indazol-2-yl)-phenoxy]-propyl}-piperidine-4-carboxylic acid amide], the IC50 at human LTA4 hydrolase (setting [5]) and at human LTA4 hydrolase (setting [6]) was under 5 µM throughout.
On to `OCC1CCN(CCCOc2ccc(-n3nc4ccccc4c3Cl)cc2)CC1` [Example 11, (1-{3-[4-(3-Chloro-indazol-2-yl)-phenoxy]-propyl}-piperidin-4-yl)-methanol], for which the IC50 on human LTA4 hydrolase (setting [5]) and at human LTA4 hydrolase (setting [6]) was under 5 µM each time.
With `Clc1c2ccccc2nn1-c1ccc(OC[C@H]2CCCN2)cc1` [Example 12, 3-Chloro-2-[4-((R)-1-pyrrolidin-2-ylmethoxy)-phenyl]-2H-indazole], the IC50 on human LTA4 hydrolase (setting [8]) and on human LTA4 hydrolase (setting [6]) was under 5 µM each time.
On to `Clc1c2ccccc2nn1-c1ccc(OC[C@@H]2CCCN2)cc1` [Example 13, 3-Chloro-2-[4-((S)-1-pyrrolidin-2-ylmethoxy)-phenyl]-2H-indazole hydrochloride], for which the IC50 on human LTA4 hydrolase (setting [8]) and at human LTA4 hydrolase (setting [6]) was under 5 µM each time.
On to `O=C(O)CN1CCC[C@@H]1COc1ccc(-n2nc3ccccc3c2Cl)cc1` [Example 15, {(R)-2-[4-(3-Chloro-indazol-2-yl)-phenoxymethyl]-pyrrolidin-1-yl}-acetic acid Hydrochloride], for which the IC50 on human LTA4 hydrolase (setting [8]) and at human LTA4 hydrolase (setting [6]) was under 5 µM each time.
As to `O=C(O)CCN1CCC[C@@H]1COc1ccc(-n2nc3ccccc3c2Cl)cc1` [Example 16, 3-{(R)-2-[4-(3-Chloro-indazol-2-yl)-phenoxymethyl]-pyrrolidin-1-yl}-propionic acid Hydrochloride], the IC50 at human LTA4 hydrolase (setting [8]) and on human LTA4 hydrolase (setting [6]) was under 5 µM throughout.
For `O=C(O)CCCN1CCC[C@@H]1COc1ccc(-n2nc3ccccc3c2Cl)cc1` [Example 17, 4-{(R)-2-[4-(3-Chloro-indazol-2-yl)-phenoxymethyl]-pyrrolidin-1-yl}-butyric acid Hydrochloride], the IC50 on human LTA4 hydrolase (setting [8]) and on human LTA4 hydrolase (setting [6]) was under 5 µM throughout.
Consider `O=C(O)CN1CCC[C@H]1COc1ccc(-n2nc3ccccc3c2Cl)cc1` [Example 18, {(S)-2-[4-(3-Chloro-indazol-2-yl)-phenoxymethyl]-pyrrolidin-1-yl}-acetic acid Hydrochloride], for which the IC50 at human LTA4 hydrolase (setting [8]) and at human LTA4 hydrolase (setting [6]) was under 5 µM each time.
Consider `O=C(O)CCCN1CCC[C@H]1COc1ccc(-n2nc3ccccc3c2Cl)cc1` [Example 19, 4-{(S)-2-[4-(3-Chloro-indazol-2-yl)-phenoxymethyl]-pyrrolidin-1-yl}-butyric acid Hydrochloride], for which the IC50 on human LTA4 hydrolase (setting [8]) and at human LTA4 hydrolase (setting [6]) was under 5 µM in each case.
`CN(CCCOc1ccc(Cc2ccccc2)cc1)CCC(=O)O.Cl` [SC57461]: the “inhibition of ionophore-induced LTB4 production in mouse blood ex vivo” value in experiment [1] is “inhibition of ionophore-induced LTB4 production”. In experiment [2], the “inhibition of ionophore-induced LTB4 production in rat peritoneum in vivo” value is recorded as “inhibition of ionophore-induced LTB4 production”. The colitis symptoms result in experiment [3] is “significantly improved colitis symptoms”.
